This experiment deals with HSC-T6 cells. Nature of the experiment: Inhibitory effect of RA on HSC-T6 cell growth (MTT). The format is cell-based. The note with it: for inhibition at 0.1 µg/mL / inhibition at 1 µg/mL / inhibition at 10 µg/mL / inhibition at 50 µg/mL / inhibition at 100 µg/mL: HSC-T6, read-out: Inhibition rate (%); for inhibition at 0.1 µg/mL: 0.1 mg/L; for inhibition at 1 µg/mL: 1 mg/L; for inhibition at 10 µg/mL: 10 mg/L; for inhibition at 50 µg/mL: 50 mg/L; for inhibition at 100 µg/mL: 100 mg/L. The source says:
Cells and experimental groups: HSC cell line was HSC-T6 (Shanghai Biosis Biotechnology Co. Ltd.), with the phenotype of active HSC. The cells were divided into groups for 0, 2.5, 5, 10, 20, and 40 μmol·L^−1 of RA. MTT method (Ye T and Liu X C, Effect of Pentoxifilline on Proliferation of Mesangial Cell Cultured in glucose-rich Medium and on CTGF Expression, Chinese Pharmacological Bulletin, 2004, 20(8): 883-885) was used to determine the effective RA concentration. Effects of RA on HSC-T6 proliferation and CTGF expression were examined.
A 1000 mg/L stock solution of RA in DMEM medium was prepared, and filtered through 0.22 μm microfilter to remove bacteria. The stock was then aliquoted in appropriate containers and stored at −20° C. in dark. It is good for use within 2 weeks. DMEM supplemented with 2% fetal bovine serum (FBS) was used to dilute the stock to desired concentrations before use.
HSC-T6 cells were cultured in DMEM supplemented with 100 U·mL^−1 penicillin, 100 U·mL^−1 streptomycin, and 10% FBS at 37° C., 5% CO2, and saturated humidity. Medium was changed every other day. The culture was digested with 0.002% EDTA and 0.25% trypsin at 80-90% confluence. And the cells were passaged at 1:4.
HSC-T6 cells at logarithmic phase after thawed were digested with trypsin and seeded to 96-well plate in DMEM supplemented with 5% FBS at the density of 1×10^4. After 24 hours culture, different concentrations of RA were added according to table 1. Each concentration of RA was added to 6 wells. Blank wells were designed to serve as control. […] The supernatant was discarded after 4 hours of incubation, and […] of dimethyl sufoxide (DMSO) was added to each well to obtain cell lysate, which was then shaken well before detected for OD value on ELISA reader (492 nm). Cell growth inhibition rates were calculated.

Read-outs that look alike come from different tables or passages of the source.

Data on one molecule can be found in US20100130604A1, “USE OF ROSMARINIC ACID IN MANUFACTURE OF MEDICAMENTS FOR TREATING OR PREVENTING HEPATIC AND RENAL DISEASES” (SHANGDONG LUYE NATURAL DRUG RESEARCH AND DEVELOPMENT CO., …, priority 2006, published 2010).

Consider `O=C(/C=C/c1ccc(O)c(O)c1)O[C@H](Cc1ccc(O)c(O)c1)C(=O)O` [RA, R(+)2-{[3-(3,4-dihydroxylphenyl-(oxo-2-propenyl)oxy]3,4-dihydroxylphenylpropionic acid]}], for which, for the setting “12 h”, the inhibition at 0.1 µg/mL is 9.8 ± 2.3%, the inhibition at 1 µg/mL stood at 20.7 ± 2%, the inhibition at 10 µg/mL was 37.2 ± 2.6% and the inhibition at 50 µg/mL came out at 52.3 ± 4.7%. Also, the inhibition at 100 µg/mL (12 h) came to 57.2 ± 2.3%. Also, where the note is “24 h”, the inhibition at 0.1 µg/mL is 12.1 ± 2.2%, the inhibition at 1 µg/mL stood at 23 ± 2%, the inhibition at 10 µg/mL worked out at 38.6 ± 1.9% and the inhibition at 50 µg/mL was determined as 54.6 ± 4.6%. For the setting “24 h”, the inhibition at 100 µg/mL was 59.6 ± 2.1%. For the same molecule, for the setting “48 h”, the inhibition at 0.1 µg/mL stood at 14.4 ± 2.3%, the inhibition at 1 µg/mL was determined as 25.3 ± 2.1%, the inhibition at 10 µg/mL turned out to be 38.9 ± 3.2% and the inhibition at 50 µg/mL was found to be 55.2 ± 3.5%. Also, the inhibition at 100 µg/mL (48 h) was found to be 61.8 ± 2.2%. In addition, under “different concentrations of RA”, the “HSC-T6 proliferation compared to the control group” value is recorded as “significantly inhibited HSC-T6 proliferation”.
